Tests used:
Pcy mice = assay: Previous study of tool anti-miR-17 in Pcy mice; format: in vivo, mouse; conditions: 50 mg/kg once weekly for 26 weeks
Description: (§1) Previous studies using a research tool anti-miR-17 compound identified a role for miR-17 in PKD in two different models of PKD, the Pkd2-KO model (also known as the Pkhd1/cre; Pkd2^F/F model) and the Pcy model. The research tool modified oligonucleotide complementary to miR-17 was tested in mouse models of PKD. The anti-miR-17 compound was a fully phosphorothioated oligonucleotide 19 linked nucleosides in length (5′-CTGCACTGTAAGCACTTTG-3′; SEQ ID NO: 7), with DNA, 2′-MOE and S-cEt sugar moieties.
Pcy mice bearing a mutation in Nphp3 spontaneously develop polycystic kidney disease, with a slower progression of disease than that observed in the Pkd2-KO mice. Mice were treated with 50 mg/kg of tool anti-miR-17 compound, or with PBS, once weekly for a total of 26 weeks. The mean ratio of kidney weight to body weight in the Pcy mice treated with anti-miR-17 was 19% lower than the mean ratio of kidney weight to body weight in the Pcy mice administered PBS only (p=0.0003).

miR-17 family = assay: In vitro assays of tool compound against miR-17 family
Description: as §1

[1] = In vivo study of research tool compound (proinflammatory effect)
Description: Further, the research tool compound was not sufficiently efficacious for development as a pharmaceutical agent for the treatment of PKD. Accordingly, a screen was performed to identify inhibitors of one or more miR-17 family members that are sufficiently efficacious, convenient to administer, and safe for administration to subjects with PKD. An additional criterion was a sufficiently high kidney-to-liver delivery ratio, to enhance the proportion of anti-miR-17 compound that is delivered to the target organ.

[2] = Biochemical fluorescent binding assay (FBA); conditions: fold change relative to control-treated samples
Description: (§2) In in vitro assays, the potential for toxicity was assessed using a biochemical fluorescent binding assay (FBA) and a liver or kidney slice assay. The FBA is performed by incubating a fluorescent dye with each compound, and immediately measuring fluorescence. Highly fluorescent compounds have the potential to produce toxicity in vivo. The liver or kidney slice assay is performed by incubating a slice of tissue from a core liver sample isolated from rat. Following a 24-hour incubation, RNA is extracted from the tissue slice, and the expression levels of 18 pro-inflammatory genes are measured. An induction in pro-inflammatory gene expression indicates a potential for pro-inflammatory effects in vivo.
The potential for toxicity was assessed using a biochemical fluorescent binding assay (FBA). The FBA is performed by incubating a fluorescent dye with each compound, and immediately measuring fluorescence. Results are expressed as fold change (Linear FC) relative to control-treated samples. Highly fluorescent compounds have the potential to produce toxicity in vivo.

[3] = In vitro metabolic stability in human liver lysate; format: in vitro ADME; conditions: 24-hour incubation of RG4326
Description: Due to their reduced capacity for serum protein binding, which is a property that drives oligonucleotide distribution in the body, short oligonucleotides are not necessarily expected to have pharmacokinetic properties that make them suitable for use as drugs. RG4326 was incubated in mouse, monkey or human liver homogenate. The identity and concentration of RG4326 and metabolites was determined after a 24-hour incubation. RG4326 and metabolites were extracted using liquid-liquid extraction (LLE) and/or solid-phase extraction (SPE), which were then analyzed for identity and concentration using ion-pairing-reversed-phase high performance liquid chromatography coupled with time-of-flight mass spectrometry (IP—RP-HPLC-TOF).

IFIT3 expression = assay: Ex vivo liver slice assay; format: cell-based; conditions: rat liver slice; 24-hour incubation; relative to PBS
Description: as §2
Ex vivo assays were performed with liver or kidney tissue slices. The liver or kidney slice assay is performed by incubating a slice of tissue from a core liver or kidney sample isolated from rat. Following a 24-hour incubation, RNA is extracted from the tissue slice, and the expression levels of 18 pro-inflammatory genes, including IFIT, are measured. A log 2 transformation of the fold change (Log2-FC) relative to PBS treatment was performed. An induction in pro-inflammatory gene expression indicates a potential for pro-inflammatory effects in vivo.

Row | Compound | mean ratio of kidney weight to body weight lower than PBS only (Pcy mice; p=0.0003) [%] | mean reduction in cyst index compared to PBS only (Pcy mice; p=0.008) [%] | inhibition of miR-17 family members (in words) (miR-17 family) | proinflammatory effect (in words) [1] | Biochemical Fluorescence Binding Assay Relative Fluorescence Unit (Linear FC) [2] [Linear FC] | Ex Vivo Liver Lysate (% Analyte), Human [3] [%] | Ex Vivo Liver Slices Assay IFIT3 expression (Log2-FC) (IFIT3 expression)
1 | 5′-CTGCACTGTAAGCACTTTG-3′ (all phosphorothioate, sugars by position and methylation of C not given here; DNA, 2'-MOE and S-cEt sugars) [Tool anti-miR-17, reference compound] | 19 | 28 | hybridizes to and inhibits all members of the miR-17 family | slightly proinflammatory | – | – | –
2 | COC1C(OP(=O)(S)OC[C@H]2O[C@@H](n3cnc4c(N)ncnc43)C(F)C2OP(=O)(S)OC[C@H]2O[C@@H](n3ccc(N)nc3=O)C(F)C2OP(=O)(S)OC[C@H]2O[C@@H](n3ccc(=O)[nH]c3=O)C(F)C2OP(=O)(S)OC[C@H]2O[C@@H](n3ccc(=O)[nH]c3=O)C(OC)C2OP(=O)(S)OC[C@]23O[C@@H](n4ccc(=O)[nH]c4=O)C(O[C@H]2C)C3OP(=O)(S)OC[C@]23O[C@@H](n4cnc5c(=O)[nH]c(N)nc54)C(O[C@H]2C)C3O)[C@@H](COP(=O)(S)OC2C3O[C@@H](C)[C@]2(COP(=O)(S)OC2C4O[C@@H](C)[C@]2(CO)O[C@H]4n2cnc4c(N)ncnc42)O[C@H]3n2cnc3c(=O)[nH]c(N)nc32)O[C@H]1n1ccc(N)nc1=O (stereo in doubt) [RG4326, ASGSCMAFCFUFUMUSGS] | – | – | – | – | 24.9 ± 3.1 | 98.7 | 1.11 ± 0.32

Reference: patent publication US20250333745A1, “METHODS AND COMPOSITIONS FOR TREATMENT OF POLYCYSTIC KIDNEY DISEASE” (Regulus Therapeutics Inc., priority 2016, published 2025)
